# Test results: the supplement of paper PMC10307832
# What was measured:
# Assay in all cases: relative viability (nuclei count vs DMSO), 5 days (fraction); higher = more cells survive
# Sorafenib + Dasatinib = compound: CNC(=O)c1cc(Oc2ccc(NC(=O)Nc3ccc(Cl)c(C(F)(F)F)c3)cc2)ccn1 [Sorafenib] + Cc1nc(Nc2ncc(C(=O)Nc3c(C)cccc3Cl)s2)cc(N2CCN(CCO)CC2)n1 [Dasatinib] (partner 0.075 µM)
# In short: (§1)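 Nuclei were stained with Hoechst during a one-step fixation (final 0.05% Triton X-100, 1% formaldehyde, 1 ug/ml Hoechst) carried out 5 days after dosing, then counted on 4× images. The cells, lung cancer lines in 1536-well plates, had been dosed by pin tool the day after seeding with one drug alone or a fixed anchor-drug dose plus five library-drug doses (not always all listed) in √10 steps. Relative viability is the nuclei count in treated wells divided by that in vehicle wells, and each value is the median of duplicate plates.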
# Sorafenib + Vorinostat = compound: CNC(=O)c1cc(Oc2ccc(NC(=O)Nc3ccc(Cl)c(C(F)(F)F)c3)cc2)ccn1 [Sorafenib] + O=C(CCCCCCC(=O)Nc1ccccc1)NO [Vorinostat] (partner 1 µM)
# In short: as §1
# Sorafenib + Foretinib = compound: CNC(=O)c1cc(Oc2ccc(NC(=O)Nc3ccc(Cl)c(C(F)(F)F)c3)cc2)ccn1 [Sorafenib] + COc1cc2c(Oc3ccc(NC(=O)C4(C(=O)Nc5ccc(F)cc5)CC4)cc3F)ccnc2cc1OCCCN1CCOCC1 [Foretinib] (partner 0.25 µM)
# In short: as §1
# Sorafenib + Trametinib = compound: CNC(=O)c1cc(Oc2ccc(NC(=O)Nc3ccc(Cl)c(C(F)(F)F)c3)cc2)ccn1 [Sorafenib] + CC(=O)Nc1cccc(-n2c(=O)n(C3CC3)c(=O)c3c(Nc4ccc(I)cc4F)n(C)c(=O)c(C)c32)c1 [Trametinib] (partner 0.02 µM)
# In short: as §1
# Sorafenib + Lapatinib = compound: CNC(=O)c1cc(Oc2ccc(NC(=O)Nc3ccc(Cl)c(C(F)(F)F)c3)cc2)ccn1 [Sorafenib] + CS(=O)(=O)CCNCc1ccc(-c2ccc3ncnc(Nc4ccc(OCc5cccc(F)c5)c(Cl)c4)c3c2)o1 [Lapatinib] (partner 2 µM)
# In short: as §1
cell line,measurement,setting,value
RERF-LC-KJ,relative viability,Sorafenib + Dasatinib; first compound 0.08 µM,0.967
same,relative viability,Sorafenib + Dasatinib; first compound 0.253 µM,0.668
same,relative viability,Sorafenib + Dasatinib; first compound 2.53 µM,0.77
same,relative viability,Sorafenib + Dasatinib; first compound 8 µM,0.401
same,relative viability,Sorafenib + Vorinostat; first compound 0.08 µM,0.723
same,relative viability,Sorafenib + Vorinostat; first compound 0.253 µM,0.608
same,relative viability,Sorafenib + Vorinostat; first compound 2.53 µM,0.738
same,relative viability,Sorafenib + Vorinostat; first compound 8 µM,0.665
same,relative viability,Sorafenib + Foretinib; first compound 0.08 µM,0.969
same,relative viability,Sorafenib + Foretinib; first compound 0.253 µM,0.829
same,relative viability,Sorafenib + Foretinib; first compound 2.53 µM,0.882
same,relative viability,Sorafenib + Foretinib; first compound 8 µM,0.849
same,relative viability,Sorafenib + Trametinib; first compound 0.08 µM,0.753
same,relative viability,Sorafenib + Trametinib; first compound 2.53 µM,0.86
same,relative viability,Sorafenib + Trametinib; first compound 8 µM,0.65
same,relative viability,Sorafenib + Lapatinib; first compound 0.08 µM,0.917
same,relative viability,Sorafenib + Lapatinib; first compound 0.253 µM,0.782
same,relative viability,Sorafenib + Lapatinib; first compound 2.53 µM,0.838
same,relative viability,Sorafenib + Lapatinib; first compound 8 µM,0.778
SK-LU-1,relative viability,Sorafenib + Dasatinib; first compound 0.08 µM,0.197
same,relative viability,Sorafenib + Dasatinib; first compound 0.253 µM,0.184
same,relative viability,Sorafenib + Dasatinib; first compound 2.53 µM,0.196
same,relative viability,Sorafenib + Dasatinib; first compound 8 µM,0.185
same,relative viability,Sorafenib + Vorinostat; first compound 0.08 µM,0.824
same,relative viability,Sorafenib + Vorinostat; first compound 2.53 µM,0.719
same,relative viability,Sorafenib + Vorinostat; first compound 8 µM,0.455
same,relative viability,Sorafenib + Foretinib; first compound 0.08 µM,0.857
same,relative viability,Sorafenib + Foretinib; first compound 0.253 µM,0.632
same,relative viability,Sorafenib + Foretinib; first compound 2.53 µM,0.761
same,relative viability,Sorafenib + Foretinib; first compound 8 µM,0.692
same,relative viability,Sorafenib + Trametinib; first compound 0.08 µM,0.726
same,relative viability,Sorafenib + Trametinib; first compound 0.253 µM,0.44
same,relative viability,Sorafenib + Trametinib; first compound 2.53 µM,0.302
same,relative viability,Sorafenib + Trametinib; first compound 8 µM,0.234
same,relative viability,Sorafenib + Lapatinib; first compound 0.08 µM,0.914
same,relative viability,Sorafenib + Lapatinib; first compound 0.253 µM,0.735
same,relative viability,Sorafenib + Lapatinib; first compound 2.53 µM,0.774
same,relative viability,Sorafenib + Lapatinib; first compound 8 µM,0.373
SK-MES-1,relative viability,Sorafenib + Dasatinib; first compound 0.08 µM,0.434
same,relative viability,Sorafenib + Dasatinib; first compound 0.253 µM,0.276
same,relative viability,Sorafenib + Dasatinib; first compound 2.53 µM,0.41
same,relative viability,Sorafenib + Dasatinib; first compound 8 µM,0.273
same,relative viability,Sorafenib + Vorinostat; first compound 0.08 µM,1.15
same,relative viability,Sorafenib + Vorinostat; first compound 0.253 µM,0.914
same,relative viability,Sorafenib + Vorinostat; first compound 8 µM,0.842
same,relative viability,Sorafenib + Foretinib; first compound 0.08 µM,1.07
same,relative viability,Sorafenib + Foretinib; first compound 0.253 µM,0.896
same,relative viability,Sorafenib + Foretinib; first compound 2.53 µM,0.903
same,relative viability,Sorafenib + Foretinib; first compound 8 µM,0.818
same,relative viability,Sorafenib + Trametinib; first compound 0.08 µM,0.627
same,relative viability,Sorafenib + Trametinib; first compound 0.253 µM,0.614
same,relative viability,Sorafenib + Trametinib; first compound 2.53 µM,0.315
same,relative viability,Sorafenib + Trametinib; first compound 8 µM,0.231
same,relative viability,Sorafenib + Lapatinib; first compound 0.08 µM,0.468
same,relative viability,Sorafenib + Lapatinib; first compound 0.253 µM,0.465
same,relative viability,Sorafenib + Lapatinib; first compound 2.53 µM,0.56
same,relative viability,Sorafenib + Lapatinib; first compound 8 µM,0.515
SW 1573,relative viability,Sorafenib + Dasatinib; first compound 0.08 µM,0.752
same,relative viability,Sorafenib + Dasatinib; first compound 0.253 µM,0.38
same,relative viability,Sorafenib + Dasatinib; first compound 2.53 µM,0.505
same,relative viability,Sorafenib + Dasatinib; first compound 8 µM,0.213
same,relative viability,Sorafenib + Vorinostat; first compound 0.08 µM,0.662
same,relative viability,Sorafenib + Vorinostat; first compound 0.253 µM,0.618
same,relative viability,Sorafenib + Vorinostat; first compound 2.53 µM,0.366
same,relative viability,Sorafenib + Vorinostat; first compound 8 µM,0.425
same,relative viability,Sorafenib + Foretinib; first compound 0.08 µM,1.09
same,relative viability,Sorafenib + Foretinib; first compound 0.253 µM,0.791
same,relative viability,Sorafenib + Foretinib; first compound 2.53 µM,0.995
same,relative viability,Sorafenib + Foretinib; first compound 8 µM,0.777
same,relative viability,Sorafenib + Trametinib; first compound 0.08 µM,0.549
same,relative viability,Sorafenib + Trametinib; first compound 0.253 µM,0.608
same,relative viability,Sorafenib + Trametinib; first compound 2.53 µM,0.337
same,relative viability,Sorafenib + Trametinib; first compound 8 µM,0.131
same,relative viability,Sorafenib + Lapatinib; first compound 0.08 µM,1.18
same,relative viability,Sorafenib + Lapatinib; first compound 0.253 µM,0.978
same,relative viability,Sorafenib + Lapatinib; first compound 2.53 µM,1.12
same,relative viability,Sorafenib + Lapatinib; first compound 8 µM,0.963
UMC-11,relative viability,Sorafenib + Dasatinib; first compound 0.08 µM,0.509
same,relative viability,Sorafenib + Dasatinib; first compound 0.253 µM,0.396
same,relative viability,Sorafenib + Dasatinib; first compound 2.53 µM,0.357
same,relative viability,Sorafenib + Dasatinib; first compound 8 µM,0.205
same,relative viability,Sorafenib + Vorinostat; first compound 0.08 µM,0.395
same,relative viability,Sorafenib + Vorinostat; first compound 0.253 µM,0.422
same,relative viability,Sorafenib + Vorinostat; first compound 2.53 µM,0.379
same,relative viability,Sorafenib + Vorinostat; first compound 8 µM,0.36
same,relative viability,Sorafenib + Foretinib; first compound 0.08 µM,0.968
same,relative viability,Sorafenib + Foretinib; first compound 0.253 µM,1.02
same,relative viability,Sorafenib + Foretinib; first compound 2.53 µM,0.941
same,relative viability,Sorafenib + Foretinib; first compound 8 µM,0.58
same,relative viability,Sorafenib + Trametinib; first compound 0.08 µM,0.854
same,relative viability,Sorafenib + Trametinib; first compound 0.253 µM,0.743
same,relative viability,Sorafenib + Trametinib; first compound 2.53 µM,0.639
same,relative viability,Sorafenib + Trametinib; first compound 8 µM,0.612
same,relative viability,Sorafenib + Lapatinib; first compound 0.08 µM,1.08
same,relative viability,Sorafenib + Lapatinib; first compound 0.253 µM,0.874
same,relative viability,Sorafenib + Lapatinib; first compound 2.53 µM,1.07
same,relative viability,Sorafenib + Lapatinib; first compound 8 µM,0.468
